Measured values from patent publication US12336977B2, “Nitenin analogue compounds and their use in the treatment of chronic and acute pain” (SEA4US-BIOTECNOLOGIA E RECURSOS MARINHOS, LDA., priority 2019, dated 2025).
Entries after “also recorded” stand apart in the source; their conditions may differ.

Legend:
[1] = system: CCI rats (chronic constriction of the sciatic nerve of Wistar rats); assay: neuropathic pain rat model CCI, von Frey filaments; assay type: in vivo
Source text: FIG. 4 illustrates behavioral readouts as measures of pain during treatment with nitenin on a Neuropatic pain rat model CCI (Chronic constriction injury). Typical experiment using a group of Wistar rats subjected to four unilateral sciatic nerve constrictions. Values refer to the mechanical sensitivity to stimulation using calibrated von Frey Filaments, and consequently reflecting hyperalgesia when hypersensitive (black filled markers—ipsilateral, operated leg; Open markers—contralateral, uninjured leg). Dotted line refers to the average value of the ipsilateral paw prior to surgery. a) Induction of the model showing that 3 days after operation, the mechanical sensitivity of the ipsilateral limb increases markedly, whereas the one associated with the contralateral leg remained unchanged, similar to baseline values. This tendency is maintained during 26 days after surgery, day that treatment with nitenin was performed (circle with dotted line). b) Effect of intravenous injection of nitenin (estimated plasma concentration of 1 μg/ml) on the mechanical sensitivity of the ipsilateral leg. For clarity, the data of the contralateral limb is not shown but it remains unaltered. […]
For efficacy studies, nociception was assessed in all animals from all pain models by regular behavioural monitoring, by quantifying the sensitivity to mechanical stimuli with Von Frey filaments, and consequently reflecting hyperalgesia when hypersensitive. […] Intraperitoneal administration was tested in CFA rats (23 days after CFA injection), with 10 times the nitenin quantity administered by I.V. injections. […]

[2] = system: isolated rat atria and isolated rat ventricles; assay: ex vivo rat heart preparations; details: up to 10 μM
hKv1.3 = biological target: T1, hKv1.3 (Homo sapiens, UniProt P22001); assay: voltage-clamp of K+ currents in CHO-K1 cells expressing hKv1.3; assay type: cell-based; details: inhibition measured at end of 1000 ms pulse, read-out: IC50 of K+ current inhibition, hKv1.3
T1 construct: expressed in transfected cells; host or cells: CHO-K1
T1 sequence (P22001 whole entry): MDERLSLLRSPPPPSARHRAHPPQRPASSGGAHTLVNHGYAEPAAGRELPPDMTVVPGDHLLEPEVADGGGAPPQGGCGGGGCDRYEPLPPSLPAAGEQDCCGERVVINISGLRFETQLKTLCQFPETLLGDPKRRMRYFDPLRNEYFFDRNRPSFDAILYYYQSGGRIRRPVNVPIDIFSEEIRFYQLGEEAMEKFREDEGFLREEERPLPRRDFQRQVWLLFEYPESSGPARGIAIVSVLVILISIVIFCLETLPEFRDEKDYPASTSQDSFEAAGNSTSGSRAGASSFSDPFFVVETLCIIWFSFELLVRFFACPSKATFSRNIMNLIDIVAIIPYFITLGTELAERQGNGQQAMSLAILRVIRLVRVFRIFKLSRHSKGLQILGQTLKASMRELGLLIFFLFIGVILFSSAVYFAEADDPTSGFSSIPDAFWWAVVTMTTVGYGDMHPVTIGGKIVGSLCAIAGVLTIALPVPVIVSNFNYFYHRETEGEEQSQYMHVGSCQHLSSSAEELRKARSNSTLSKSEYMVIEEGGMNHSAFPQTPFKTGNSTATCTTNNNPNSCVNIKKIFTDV
Source text: As measure of Ifast, peak current was used, whereas, as a measure of Islow, the current value was obtained at the end of the command pulse (see FIG. 1). Values are expressed as mean±S.E.M. For Islow, a dual phase relationship can be observed. […] Kv1.3 channel is the most sensitive channel (around 6-fold more sensitive in comparison to the “next most sensitive one”, the Kv1.2) Kv1.2, Kv1.1 and Kv1.6 show similar, intermediate sensitivities to nitenin. In opposition, Kv1.4 is the less sensitive (˜31 times less sensitive).
Additionally, drug sensitivity to different voltage-activated channels was assessed by studying the drug effect on currents recorded from chinese hamster ovary (CHO) cells stably transfected with different human Kv channel subunits (Kv1.1, Kv1.2, Kv1.3, Kv1.4 and Kv1.6).
The higher sensitivity of nitenin to Islow (rather than Ifast) and the nature of the nitenin sensitive current (see nitenin sensitive current in FIG. 1.b) urged to understand which K^+ channel(s) do underline Islow. By considering which Kv channel subunits are known to be expressed in DRG, and the biophysical nature of the nitenin-sensitive current, nitenin was tested on whole-cell currents recorded from CHO cells expressing hKv1.1, hKv1.2, hKv1.3, hKv1.4 and hKv1.6. […] Current inhibition was measured at the end of the 1000 ms pulse.

CIPN rats (paclitaxel) = assay: chemotherapy-induced peripheral neuropathy rat model CIPN, von Frey filaments; assay type: in vivo; details: I.V.; 42 days after paclitaxel
Method: […]
(§1) For efficacy studies, nociception was assessed in all animals from all pain models by regular behavioural monitoring, by quantifying the sensitivity to mechanical stimuli with Von Frey filaments, and consequently reflecting hyperalgesia when hypersensitive. […] Intraperitoneal administration was tested in CFA rats (23 days after CFA injection), with 10 times the nitenin quantity administered by I.V. injections. […] Oral administration of nitenin through stomach gavages (endogastric), with 100 times the quantity administered by I.V. injections, was tested in CCI rats (31 days after surgery). […]

[3] = system: Naïve Wistar control rats; assay: naive Wistar controls, von Frey filaments; assay type: in vivo, rat; details: I.V. injections
Method: […]
as §1

C/C(=C\C1C/C(=C/CCc2ccoc2)C(=O)O1)CCCc1ccoc1 (stereo not drawn) [nitenin]
behavioural scores of the contralateral (uninjured) paw ([1]; I.V. 1 μg/mL of blood): no changes | mechanical sensitivity of ipsilateral paw (von Frey) ([1]; I.V. 1 μg/mL of blood ~0.06 mg/Kg, acute (3 days) and chronic (22 to 31 days)): reaching values not different to those obtained during baseline; also recorded: noticeable decrease of sensitivity to mechanical stimuli | time of maximum effect after injection ([1]; intravenous, estimated plasma concentration 1 μg/ml, 26 days after surgery): ~1 h | sinus heart rate ([2]; ex vivo): does not change | atrial inotropy ([2]; isolated rat atria): does not change | right ventricular (RV) inotropy ([2]; isolated rat ventricles): does not change | IC50 (hKv1.3): 190 nM | sensitivity to mechanical stimuli, both paws (CIPN rats (paclitaxel)): intense decrease of sensitivity to mechanical stimuli | sensitivity scores, both paws [3]: never any change in sensitivity scores
